Measured values from PubChem BioAssay (NCI).
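Results reflect a 48-hour exposure of cells in 96-well plates to compound at five concentrations. At the TGI there is no net growth.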

Legend:
Assay in all cases: growth of human tumour cells (NCI), 48 h
[1] = tested on: UACC-257 melanoma
[2] = tested on: 786-0 renal
[3] = tested on: COLO 205 colon
[4] = tested on: HCT-15 colon
[5] = tested on: RPMI-8226 leukemia
[6] = tested on: OVCAR-4 ovarian
[7] = tested on: RXF 393 renal
[8] = tested on: A498 renal
[9] = tested on: MALME-3M melanoma
[10] = tested on: DU-145 prostate
[11] = tested on: NCI-H23 lung
[12] = tested on: SF-295 CNS
[13] = tested on: LOX IMVI melanoma
[14] = tested on: MDA-N
[15] = tested on: HT29 colon
[16] = tested on: SF-268 CNS
[17] = tested on: UACC-62 melanoma
[18] = tested on: SK-OV-3 ovarian
[19] = tested on: HS 578T breast
[20] = tested on: NCI-H460 lung
[21] = tested on: MDA-MB-231 breast
[22] = tested on: T-47D breast
[23] = tested on: NCI-H226 lung
[24] = tested on: SNB-75 CNS
[25] = tested on: MOLT-4 leukemia
[26] = tested on: MDA-MB-435
[27] = tested on: SK-MEL-28 melanoma
[28] = tested on: OVCAR-8 ovarian
[29] = tested on: EKVX NSCLC
[30] = tested on: MCF7 breast
[31] = tested on: M14 melanoma
[32] = tested on: PC-3 prostate
[33] = tested on: CCRF-CEM leukemia
[34] = tested on: BT-549 breast
[35] = tested on: ACHN renal
[36] = tested on: NCI-H522 lung
[37] = tested on: OVCAR-3 ovarian
[38] = tested on: SW-620 colon
[39] = tested on: OVCAR-5 ovarian
[40] = tested on: A549 NSCLC
[41] = tested on: SNB-19 CNS
[42] = tested on: U251 CNS
[43] = tested on: HL-60(TB) leukemia
[44] = tested on: KM12 colon
[45] = tested on: HCC-2998 colon
[46] = tested on: SN12C renal
[47] = tested on: K-562 leukemia
[48] = tested on: SK-MEL-2 melanoma
[49] = tested on: HCT-116 colon
[50] = tested on: TK-10 renal
[51] = tested on: NCI/ADR-RES ovarian
[52] = tested on: SF-539 CNS
[53] = tested on: HOP-62 NSCLC
[54] = tested on: CAKI-1 renal
[55] = tested on: IGROV1 ovarian
[56] = tested on: SK-MEL-5 melanoma
[57] = tested on: UO-31 renal
[58] = tested on: HOP-92 NSCLC

In the case of `O=C(N/N=C(/COc1ccccc1Cl)N=Cc1cccnc1)c1ccncc1`, the TGI [1] was > 100 µM, the TGI [2] was > 100 µM and the TGI [3] was > 100 µM. For the same compound, the TGI [4] was > 100 µM, the TGI [5] was > 100 µM and the TGI [6] was > 100 µM. The TGI [7] was > 100 µM, the TGI [8] was > 100 µM and the TGI [9] was > 100 µM. For the same compound, the TGI [10] was > 100 µM, the TGI [11] was > 100 µM and the TGI [12] was > 100 µM. For the same compound, the TGI [13] was > 100 µM, the TGI [14] was > 100 µM and the TGI [15] was > 100 µM. For the same compound, the TGI [16] was > 100 µM, the TGI [17] was > 100 µM and the TGI [18] was > 100 µM. The TGI [19] was > 100 µM, the TGI [20] was > 100 µM and the TGI [21] was > 100 µM. For the same compound, the TGI [22] was > 100 µM, the TGI [23] was > 100 µM and the TGI [24] was > 100 µM. For the same compound, the TGI [25] was > 100 µM, the TGI [26] was > 100 µM and the TGI [27] was > 100 µM. The TGI [28] was > 100 µM, the TGI [29] was > 100 µM and the TGI [30] was > 100 µM. The TGI [31] was > 100 µM, the TGI [32] was > 100 µM and the TGI [33] was > 100 µM. The TGI [34] was > 100 µM, the TGI [35] was > 100 µM and the TGI [36] was > 100 µM. For the same compound, the TGI [37] was > 100 µM, the TGI [38] was > 100 µM and the TGI [39] was > 100 µM. The TGI [40] was > 100 µM, the TGI [41] was > 100 µM and the TGI [42] was > 100 µM. For the same compound, the TGI [43] was > 100 µM, the TGI [44] was > 100 µM and the TGI [45] was > 100 µM. For the same compound, the TGI [46] was > 100 µM, the TGI [47] was > 100 µM and the TGI [48] was > 100 µM. The TGI [49] was > 100 µM, the TGI [50] was > 100 µM and the TGI [51] was > 100 µM. For the same compound, the TGI [52] was > 100 µM, the TGI [53] was > 100 µM and the TGI [54] was > 100 µM. For the same compound, the TGI [55] was > 100 µM.
`N#C/C(=N/Nc1nc[nH]c1C(N)=O)C(=O)Nc1ccccc1` was tested, and the TGI [1] was > 100 µM, the TGI [2] was > 100 µM and the TGI [3] was > 100 µM. The TGI [4] was > 100 µM, the TGI [5] was > 100 µM and the TGI [6] was > 100 µM. The TGI [56] was > 100 µM, the TGI [7] was > 100 µM and the TGI [9] was > 100 µM. For the same compound, the TGI [10] was > 100 µM, the TGI [11] was > 100 µM and the TGI [12] was > 100 µM. For the same compound, the TGI [14] was > 100 µM, the TGI [15] was > 100 µM and the TGI [16] was > 100 µM. For the same compound, the TGI [17] was > 100 µM, the TGI [18] was > 100 µM and the TGI [19] was > 100 µM. For the same compound, the TGI [20] was > 100 µM, the TGI [21] was > 100 µM and the TGI [22] was > 100 µM. For the same compound, the TGI [23] was > 100 µM, the TGI [24] was > 100 µM and the TGI [25] was > 100 µM. The TGI [26] was > 100 µM, the TGI [27] was > 100 µM and the TGI [28] was > 100 µM. The TGI [29] was > 100 µM, the TGI [30] was > 100 µM and the TGI [31] was > 100 µM. The TGI [32] was > 100 µM, the TGI [33] was > 100 µM and the TGI [57] was > 100 µM. For the same compound, the TGI [34] was > 100 µM, the TGI [35] was > 100 µM and the TGI [36] was 45.7 µM. For the same compound, the TGI [37] was 89.6 µM, the TGI [38] was > 100 µM and the TGI [39] was > 100 µM. For the same compound, the TGI [40] was > 100 µM, the TGI [41] was > 100 µM and the TGI [42] was > 100 µM. For the same compound, the TGI [43] was > 100 µM, the TGI [44] was > 100 µM and the TGI [45] was > 100 µM. For the same compound, the TGI [46] was > 100 µM, the TGI [47] was > 100 µM and the TGI [48] was > 100 µM. For the same compound, the TGI [49] was > 100 µM, the TGI [50] was > 100 µM and the TGI [51] was > 100 µM. For the same compound, the TGI [53] was > 100 µM and the TGI [55] was > 100 µM.
With `O=C1NC(N/N=C/c2c[nH]c3ccccc23)=N/C1=C\c1cccs1` the TGI [1] was > 100 µM, the TGI [2] was > 100 µM and the TGI [3] was > 100 µM. For the same compound, the TGI [4] was > 100 µM, the TGI [5] was > 100 µM and the TGI [6] was > 100 µM. For the same compound, the TGI [56] was > 100 µM, the TGI [7] was > 100 µM and the TGI [8] was 71.9 µM. For the same compound, the TGI [9] was > 100 µM, the TGI [10] was > 100 µM and the TGI [11] was > 100 µM. For the same compound, the TGI [12] was > 100 µM, the TGI [13] was > 100 µM and the TGI [14] was > 100 µM. The TGI [15] was > 100 µM, the TGI [16] was > 100 µM and the TGI [17] was > 100 µM. The TGI [18] was > 100 µM, the TGI [19] was > 100 µM and the TGI [20] was > 100 µM. For the same compound, the TGI [21] was > 100 µM, the TGI [22] was > 100 µM and the TGI [23] was > 100 µM. For the same compound, the TGI [24] was > 100 µM, the TGI [25] was > 100 µM and the TGI [26] was > 100 µM. For the same compound, the TGI [27] was > 100 µM, the TGI [28] was > 100 µM and the TGI [29] was > 100 µM. The TGI [30] was > 100 µM, the TGI [31] was > 100 µM and the TGI [32] was > 100 µM. For the same compound, the TGI [33] was > 100 µM, the TGI [57] was > 100 µM and the TGI [34] was > 100 µM. The TGI [35] was > 100 µM, the TGI [36] was > 100 µM and the TGI [37] was 77.3 µM. For the same compound, the TGI [38] was > 100 µM, the TGI [39] was > 100 µM and the TGI [40] was > 100 µM. For the same compound, the TGI [41] was > 100 µM, the TGI [42] was > 100 µM and the TGI [43] was 60.6 µM. The TGI [44] was > 100 µM, the TGI [46] was > 100 µM and the TGI [47] was > 100 µM. The TGI [58] was > 100 µM, the TGI [48] was > 100 µM and the TGI [49] was > 100 µM. For the same compound, the TGI [50] was > 100 µM, the TGI [51] was > 100 µM and the TGI [52] was > 100 µM. The TGI [53] was > 100 µM, the TGI [54] was > 100 µM and the TGI [55] was > 100 µM.
